Laboratory results taken from US7572603B2, “Alpha-2 adrenergic receptor polymorphisms” (University of Cincinnati, priority 2000, dated 2009).
Changes are numbered by the printed parent chain.

Legend:
wild-type alpha-2CAR [1] = molecular target: T1, wild-type alpha-2CAR (Homo sapiens, UniProt P18825, L239R/R446P/S401I); conditions: epinephrine competition, absence of GTP
T1 sequence (P18825 1-462 L239R/S401I/R446P): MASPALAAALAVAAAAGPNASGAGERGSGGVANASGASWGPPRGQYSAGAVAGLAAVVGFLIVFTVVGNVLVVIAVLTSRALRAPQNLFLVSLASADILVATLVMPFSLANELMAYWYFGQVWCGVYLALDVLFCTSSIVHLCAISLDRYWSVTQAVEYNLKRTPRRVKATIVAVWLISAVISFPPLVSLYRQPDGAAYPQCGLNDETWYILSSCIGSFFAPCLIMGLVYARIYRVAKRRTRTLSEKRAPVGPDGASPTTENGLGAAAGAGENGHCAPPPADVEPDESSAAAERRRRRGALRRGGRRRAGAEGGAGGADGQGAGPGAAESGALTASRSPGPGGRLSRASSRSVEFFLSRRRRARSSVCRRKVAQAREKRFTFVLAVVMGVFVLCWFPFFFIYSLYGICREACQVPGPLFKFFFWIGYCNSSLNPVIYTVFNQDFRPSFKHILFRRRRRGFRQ

wild-type alpha-2CAR [2] = molecular target: T1, wild-type alpha-2CAR; conditions: 10 μM epinephrine vs 1 unit/ml thrombin
wild-type alpha-2CAR [3] = molecular target: T1, wild-type alpha-2CAR; conditions: 10 μM epinephrine, 5 min; expression 806 fmol/mg
wild-type alpha-2CAR [4] = molecular target: T1, wild-type alpha-2CAR; test: Inhibition of forskolin-stimulated adenylyl cyclase, CHO cell membranes; assay type: biochemical; design: expressed in transfected cells; membranes or intact cells; conditions: for Max Inhibition (%) of adenylyl cyclase: CHO line expressing 1570 ± 79.9 fmol/mg
Excerpt: (§1) Reactions were terminated by the addition of a stop solution containing excess ATP and cAMP and —100,000 dpm of [3H]cAMP. Labeled cAMP was isolated by gravity chromatography over alumina columns with [3H]cAMP used to quantitate column recovery. […] Results are expressed as percent inhibition of forskolin stimulated activity.

Lys251 alpha-2AAR [5] = molecular target: T2, Lys251 alpha-2AAR (Homo sapiens, UniProt P08913, N266K); test: [35S]GTPyS binding, COS-7 membranes coexpressing receptor and Gi alpha2; assay type: biochemical; design: expressed in transfected cells; membranes or intact cells; conditions: 10 μM agonist
T2 sequence (P08913 16-465 N266K): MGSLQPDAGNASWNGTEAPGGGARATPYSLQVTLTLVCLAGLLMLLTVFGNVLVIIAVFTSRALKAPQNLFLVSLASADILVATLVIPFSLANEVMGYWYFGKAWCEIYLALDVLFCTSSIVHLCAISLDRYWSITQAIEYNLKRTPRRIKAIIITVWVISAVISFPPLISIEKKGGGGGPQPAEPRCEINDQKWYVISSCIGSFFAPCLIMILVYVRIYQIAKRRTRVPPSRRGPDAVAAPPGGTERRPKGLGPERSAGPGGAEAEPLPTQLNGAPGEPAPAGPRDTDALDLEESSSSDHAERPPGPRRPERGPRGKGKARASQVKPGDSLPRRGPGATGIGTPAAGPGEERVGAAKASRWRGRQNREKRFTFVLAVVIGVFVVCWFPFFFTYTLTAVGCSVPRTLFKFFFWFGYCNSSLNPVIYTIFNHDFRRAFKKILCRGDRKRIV
Method: Nonspecific binding was measured in the presence of […] GTPyS.

[6] = molecular target: T3, wild-type Asn251 alpha-2AAR (Homo sapiens, UniProt P08913); conditions: expression 2360±263 fmol/mg
T3 sequence (P08913 16-465): T2 sequence (P08913 16-465 N266K) with K251N
Method: (§2) Alpha-2AAR inhibition of adenylyl cyclase was determined in membrane preparations from CHO cells stably expressing the two receptors using methods similar to those previously described (18). […] Reactions were terminated by the addition of a stop solution containing excess ATP and cAMP and —100,000 dpm of [3H]cAMP. Labeled cAMP was isolated by gravity chromatography over alumina columns with [3H]cAMP used to quantitate column recovery. […] Results are expressed as percent inhibition of forskolin stimulated activity.

Lys251 alpha-2AAR [7] = molecular target: T2, Lys251 alpha-2AAR
Method: as §2

wild-type alpha-2BAR [8] = molecular target: T4, wild-type alpha-2BAR (Homo sapiens, UniProt P18089); test: Inhibition of forskolin-stimulated adenylyl cyclase, CHO cell membranes, incl. desensitization; assay type: biochemical; design: The human receptor consists of 450 amino acids; expressed in transfected cells; membranes
T4 sequence (P18089 1-450): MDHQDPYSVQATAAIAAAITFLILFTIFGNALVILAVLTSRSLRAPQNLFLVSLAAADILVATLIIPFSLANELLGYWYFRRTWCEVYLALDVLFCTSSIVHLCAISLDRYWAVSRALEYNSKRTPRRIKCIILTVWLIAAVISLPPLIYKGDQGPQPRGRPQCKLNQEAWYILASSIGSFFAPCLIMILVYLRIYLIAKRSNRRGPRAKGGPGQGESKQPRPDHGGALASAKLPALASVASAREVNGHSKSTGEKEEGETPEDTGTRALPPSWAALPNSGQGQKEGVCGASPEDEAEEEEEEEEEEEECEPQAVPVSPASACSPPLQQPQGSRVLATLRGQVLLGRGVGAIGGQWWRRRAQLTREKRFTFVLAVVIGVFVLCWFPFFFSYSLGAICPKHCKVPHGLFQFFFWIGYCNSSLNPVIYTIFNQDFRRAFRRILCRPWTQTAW
Method: Alpha-2BAR inhibition of adenylyl cyclase was determined in membrane preparations from CHO cells stably expressing the two receptors using methods similar to those previously described (25). […] Reactions were terminated by the addition of a stop solution containing excess ATP and cAMP and -100,000 dpm of [3H]cAMP. Labeled cAMP was isolated by gravity chromatography over alumina columns with [3H]cAMP used to quantitate column recovery. Results are expressed as percent inhibition of forskolin stimulated activity.

wild-type alpha-2BAR [9] = molecular target: T4, wild-type alpha-2BAR; assay type: cell-based; design: expressed in transfected cells; host or cells: COS-7, transient (DEAE-dextran), co-transfected with GRK2; conditions: 10 μM norepinephrine 15 minutes, GRK2 co-expressed
wild-type alpha-2CAR [10] = molecular target: T5, wild-type alpha-2CAR (Homo sapiens, UniProt P18825); test: Inhibition of forskolin-stimulated adenylyl cyclase, CHO cell membranes; assay type: biochemical; conditions: CHO line expressing 1570 ± 79.9 fmol/mg
T5 construct: expressed in transfected cells; membranes or intact cells
T5 sequence (P18825 1-462 L239R/S401I/R446P): T1 sequence (P18825 1-462 L239R/S401I/R446P)
Excerpt: as §1

CNC[C@H](O)c1ccc(O)c(O)c1 [epinephrine]
% RH (percentage of receptors in the high-affinity state) (wild-type alpha-2CAR [1]): 42% | MAP kinase stimulation as a percent of the thrombin response (wild-type alpha-2CAR [2]): 128 | stimulated accumulation of inositol phosphates over basal (wild-type alpha-2CAR [3]): 3Q | agonist-promoted inhibition of adenylyl cyclase (wild-type alpha-2CAR [4]; lower expressing line, 565 fmol/mg): 73%

Brc1c(NC2=NCCN2)ccc2nccnc12 [UK 14304]
enhanced [35S]GTPyS binding for the Lys251 receptor as compared to the Asn251 receptor (Lys251 alpha-2AAR [5]): ~40% | Max Inhibition (%) of adenylyl cyclase (wild-type alpha-2CAR [4]): 67.6 ± 2.09%

Cc1cc(C(C)(C)C)c(O)c(C)c1CC1=NCCN1 [oxymetazoline]
Maximal inhibition of forskolin-stimulated adenylyl cyclase [6]: 35±4.7% | augmented function (adenylyl cyclase inhibition) compared to the Asn251 receptor (Lys251 alpha-2AAR [7]; Lys251 vs Asn251): ~40% | Maximal inhibition of forskolin-stimulated adenylyl cyclase (Lys251 alpha-2AAR [7]; expression 2590±140 fmol/mg): 50±6.6% | Max Inhibition (%) of adenylyl cyclase (wild-type alpha-2CAR [4]): 27.0 ± 2.70%

NC[C@H](O)c1ccc(O)c(O)c1 [norepinephrine]
enhanced [35S]GTPyS binding for the Lys251 receptor as compared to the Asn251 receptor (Lys251 alpha-2AAR [5]): ~40% | Max Inhibition (%) of adenylyl cyclase (wild-type alpha-2CAR [4]): 76.6 ± 1.60% | Desensitization % (wild-type alpha-2BAR [8]; after 10 μM norepinephrine 30 min at 37° C.): ~54% | Submax inhibition % Ctrl (wild-type alpha-2BAR [8]; at the EC50 of control membranes, cells pretreated with media alone): 16.5±3.9% | Max Inhibition of forskolin-stimulated adenylyl cyclase (wild-type alpha-2BAR [8]; receptor density 626±54 fmol/mg): 28.5±1.6% | fold increase in receptor phosphorylation with agonist exposure (wild-type alpha-2BAR [9]): 5.84±0.49 fold

Clc1cccc(Cl)c1N=C1NCCN1 [clonidine]
Max Inhibition (%) of adenylyl cyclase (wild-type alpha-2CAR [4]): 38.5 ± 2.44%

N=C(N)N/N=C/c1c(Cl)cccc1Cl [guanabenz]
enhanced [35S]GTPyS binding for the Lys251 receptor as compared to the Asn251 receptor (Lys251 alpha-2AAR [5]): 72% | Max Inhibition (%) of adenylyl cyclase (wild-type alpha-2CAR [4]): 53.8 ± 1.99%

CCN1CCc2nc(N)oc2CC1 [BHT-933]
EC50 (wild-type alpha-2CAR [10]): 5500 ± 2110 nM | enhanced [35S]GTPyS binding for the Lys251 receptor as compared to the Asn251 receptor (Lys251 alpha-2AAR [5]): 45% | Max Inhibition (%) of adenylyl cyclase (wild-type alpha-2CAR [4]): 56.8 ± 1.41%
